Experimental data published in patent US10131652B2, “Pyrimidinyloxy benzene derivatives as herbicides” (E. I. DU PONT DE NEMOURS AND COMPANY, priority 2014, dated 2018).

Columns and labels:
Assay in all cases: Test F pre-/postemergence plant response
Format in all cases: in vivo
Conditions in all cases: scale 0 to 100
[1] = tested on: hairy beggarticks (Bidens pilosa)
How it was run: (§1)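 Formulation: non-phytotoxic solvent mix + surfactant. Preemergence: applied to seeded silt loam. Postemergence: foliar, 1- to 4-leaf plants, 2–18 cm. Greenhouse hold 14–21 days; visual score vs controls, 0 = no effect, 100 = complete control; dash = not tested.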

kochia (Kochia scoparia) = tested on: kochia (Kochia scoparia)
How it was run: as §1

[2] = tested on: velvetleaf (Abutilon theophrasti)
How it was run: as §1

[3] = tested on: nightshade (eastern black nightshade, Solanum ptycanthum)
How it was run: as §1

[4] = tested on: Italian ryegrass (Lolium multiflorum)
How it was run: as §1

[5] = tested on: ragweed (common ragweed, Ambrosia elatior)
How it was run: as §1

[6] = tested on: large (Lg) crabgrass (Digitaria sanguinalis)
How it was run: as §1

[7] = tested on: yellow nutsedge (Cyperus esculentus)
How it was run: as §1

[8] = tested on: barnyardgrass (Echinochloa crus-galli)
How it was run: as §1

[9] = tested on: arrowleaf sida (Sida rhombifolia)
How it was run: as §1

[10] = tested on: surinam grass (Brachiaria decumbens)
How it was run: as §1

Cc1cc(-c2ccccc2Oc2ncc(Cl)cn2)on1 [Compound 58]
Plant response rating, Beggarticks ([1]; 8 g ai/ha Postemergence): 40 | Plant response rating, Beggarticks ([1]; 8 g ai/ha Preemergence): 0 | Plant response rating, Beggarticks ([1]; 16 g ai/ha Postemergence): 40 | Plant response rating, Beggarticks ([1]; 16 g ai/ha Preemergence): 0 | Plant response rating, Beggarticks ([1]; 31 g ai/ha Postemergence): 50 | Plant response rating, Beggarticks ([1]; 31 g ai/ha Preemergence): 0 | Plant response rating, Beggarticks ([1]; 62 g ai/ha Postemergence): 50 | Plant response rating, Beggarticks ([1]; 62 g ai/ha Preemergence): 10 | Plant response rating, Beggarticks ([1]; 125 g ai/ha Postemergence): 65 | Plant response rating, Beggarticks ([1]; 125 g ai/ha Preemergence): 20 | Plant response rating, Kochia (kochia (Kochia scoparia); 8 g ai/ha Postemergence): 30 | Plant response rating, Kochia (kochia (Kochia scoparia); 8 g ai/ha Preemergence): 0 | Plant response rating, Kochia (kochia (Kochia scoparia); 16 g ai/ha Postemergence): 40 | Plant response rating, Kochia (kochia (Kochia scoparia); 16 g ai/ha Preemergence): 0 | Plant response rating, Kochia (kochia (Kochia scoparia); 31 g ai/ha Postemergence): 30 | Plant response rating, Kochia (kochia (Kochia scoparia); 31 g ai/ha Preemergence): 0 | Plant response rating, Kochia (kochia (Kochia scoparia); 62 g ai/ha Postemergence): 60 | Plant response rating, Kochia (kochia (Kochia scoparia); 125 g ai/ha Postemergence): 75 | Plant response rating, Kochia (kochia (Kochia scoparia); 125 g ai/ha Preemergence): 30 | Plant response rating, Kochia (kochia (Kochia scoparia); Preemergence): 0 | Plant response rating, Velvetleaf ([2]; 8 g ai/ha Preemergence): 20 | Plant response rating, Velvetleaf ([2]; 16 g ai/ha Preemergence): 70 | Plant response rating, Velvetleaf ([2]; 31 g ai/ha Preemergence): 100 | Plant response rating, Velvetleaf ([2]; 125 g ai/ha Preemergence): 100 | Plant response rating, Velvetleaf ([2]; Preemergence): 100 | Plant response rating, Nightshade ([3]; 8 g ai/ha Preemergence): 0 | Plant response rating, Nightshade ([3]; 16 g ai/ha Preemergence): 65 | Plant response rating, Nightshade ([3]; 31 g ai/ha Preemergence): 80 | Plant response rating, Nightshade ([3]; 125 g ai/ha Preemergence): 98 | Plant response rating, Nightshade ([3]; Preemergence): 90 | Plant response rating, Ryegrass, Italian ([4]; 8 g ai/ha Postemergence): 0 | Plant response rating, Ryegrass, Italian ([4]; 8 g ai/ha Preemergence): 0 | Plant response rating, Ryegrass, Italian ([4]; 16 g ai/ha Postemergence): 0 | Plant response rating, Ryegrass, Italian ([4]; 16 g ai/ha Preemergence): 0 | Plant response rating, Ryegrass, Italian ([4]; 31 g ai/ha Postemergence): 0 | Plant response rating, Ryegrass, Italian ([4]; 31 g ai/ha Preemergence): 0 | Plant response rating, Ryegrass, Italian ([4]; 62 g ai/ha Postemergence): 0 | Plant response rating, Ryegrass, Italian ([4]; 125 g ai/ha Postemergence): 0 | Plant response rating, Ryegrass, Italian ([4]; 125 g ai/ha Preemergence): 0 | Plant response rating, Ryegrass, Italian ([4]; Preemergence): 0 | Plant response rating, Ragweed ([5]; 8 g ai/ha Preemergence): 0 | Plant response rating, Ragweed ([5]; 16 g ai/ha Preemergence): 0 | Plant response rating, Ragweed ([5]; 31 g ai/ha Preemergence): 0 | Plant response rating, Ragweed ([5]; 125 g ai/ha Preemergence): 75 | Plant response rating, Ragweed ([5]; Preemergence): 25 | Plant response rating, Crabgrass, Large ([6]; 8 g ai/ha Preemergence): 0 | Plant response rating, Crabgrass, Large ([6]; 16 g ai/ha Preemergence): 20 | Plant response rating, Crabgrass, Large ([6]; 31 g ai/ha Preemergence): 50 | Plant response rating, Crabgrass, Large ([6]; 62 g ai/ha Preemergence): 65 | Plant response rating, Crabgrass, Large ([6]; 125 g ai/ha Preemergence): 80 | Plant response rating, Nutsedge, Yellow ([7]; 8 g ai/ha Preemergence): 0 | Plant response rating, Nutsedge, Yellow ([7]; 16 g ai/ha Preemergence): 0 | Plant response rating, Nutsedge, Yellow ([7]; 31 g ai/ha Preemergence): 0 | Plant response rating, Nutsedge, Yellow ([7]; 125 g ai/ha Preemergence): 0 | Plant response rating, Nutsedge, Yellow ([7]; Preemergence): 0 | Plant response rating, Barnyardgrass ([8]; 8 g ai/ha Postemergence): 0 | Plant response rating, Barnyardgrass ([8]; 8 g ai/ha Preemergence): 0 | Plant response rating, Barnyardgrass ([8]; 16 g ai/ha Postemergence): 0 | Plant response rating, Barnyardgrass ([8]; 16 g ai/ha Preemergence): 0 | Plant response rating, Barnyardgrass ([8]; 31 g ai/ha Postemergence): 0 | Plant response rating, Barnyardgrass ([8]; 31 g ai/ha Preemergence): 0 | Plant response rating, Barnyardgrass ([8]; 62 g ai/ha Postemergence): 0 | Plant response rating, Barnyardgrass ([8]; 62 g ai/ha Preemergence): 0 | Plant response rating, Barnyardgrass ([8]; 125 g ai/ha Postemergence): 5 | Plant response rating, Barnyardgrass ([8]; 125 g ai/ha Preemergence): 15 | Plant response rating, Arrowleaf Sida ([9]; 8 g ai/ha Postemergence): 50 | Plant response rating, Arrowleaf Sida ([9]; 8 g ai/ha Preemergence): 20 | Plant response rating, Arrowleaf Sida ([9]; 16 g ai/ha Postemergence): 70 | Plant response rating, Arrowleaf Sida ([9]; 16 g ai/ha Preemergence): 0 | Plant response rating, Arrowleaf Sida ([9]; 31 g ai/ha Postemergence): 60 | Plant response rating, Arrowleaf Sida ([9]; 31 g ai/ha Preemergence): 35 | Plant response rating, Arrowleaf Sida ([9]; 62 g ai/ha Postemergence): 75 | Plant response rating, Arrowleaf Sida ([9]; 62 g ai/ha Preemergence): 75 | Plant response rating, Arrowleaf Sida ([9]; 125 g ai/ha Postemergence): 90 | Plant response rating, Arrowleaf Sida ([9]; 125 g ai/ha Preemergence): 98 | Plant response rating, Surinam Grass ([10]; 8 g ai/ha Preemergence): 0 | Plant response rating, Surinam Grass ([10]; 16 g ai/ha Preemergence): 0 | Plant response rating, Surinam Grass ([10]; 31 g ai/ha Preemergence): 0 | Plant response rating, Surinam Grass ([10]; 125 g ai/ha Preemergence): 0 | Plant response rating, Surinam Grass ([10]; Preemergence): 0
